Laboratory results as given in US11820760B2, “Crystalline polymorphs of Bruton's tyrosine kinase inhibitors” (BIOGEN MA INC., priority 2018, dated 2023).

Assays:
Type in all cases: physicochemical
[1] = Variable temperature powder X-ray diffraction (VT-PXRD) of crystalline forms
Procedure: Crystallinity of the compound was studied using a XRD-D8 X-ray powder diffractometer using Cu Ka radiation (Bruker, Madison, Wis.). The instrument is equipped with a long fine focus X-ray tube. The tube voltage and amperage were set to 40 kV and 40 mA, respectively. The divergence and scattering slits were set at 1° and the receiving slit was set at 0.15 mm. Diffracted radiation was detected by a Lynxeye detector. A θ-2θ continuous scan at 1.6°/min from 3 to 42° 2θ was used. The sample was prepared for analysis by placing it on a zero background plate. Variable temperature powder X-ray diffraction (VT-PXRD) of Form B was performed by hearing a sample of Form B to 130° C. under N2, following by cooling back down to 30° C. […] (losing all water at this temperature) under N2, indicating Form B is a hygroscopic anhydrate. Variable temperature powder X-ray diffraction (VT-PXRD) of Form C was performed. A sample of Form C was dehydrated by purging the sample under N2 at 30° C. for 20 minutes and then heated to 100° C. under N2 followed by cooling back down to 30° C. and exposed to air for 20 minutes.

[2] = PXRD comparison of Form H before and after heating; conditions: heated to 125° C.
Procedure: Crystallinity of the compound was studied using a XRD-D8 X-ray powder diffractometer using Cu Ka radiation (Bruker, Madison, Wis.). The instrument is equipped with a long fine focus X-ray tube. The tube voltage and amperage were set to 40 kV and 40 mA, respectively. The divergence and scattering slits were set at 1° and the receiving slit was set at 0.15 mm. Diffracted radiation was detected by a Lynxeye detector. A θ-2θ continuous scan at 1.6°/min from 3 to 42° 2θ was used. The sample was prepared for analysis by placing it on a zero background plate. A sample of Form H was heated to 125° C. and PXRD pattern was compared with PXRD pattern for the sample before heating.

[3] = PXRD of Form P after grinding in water; conditions: Form P with 2.9 wt % water ground in water with mortar and pestle to a viscous slurry
Procedure: Crystallinity of the compound was studied using a XRD-D8 X-ray powder diffractometer using Cu Ka radiation (Bruker, Madison, Wis.). The instrument is equipped with a long fine focus X-ray tube. The tube voltage and amperage were set to 40 kV and 40 mA, respectively. The divergence and scattering slits were set at 1° and the receiving slit was set at 0.15 mm. Diffracted radiation was detected by a Lynxeye detector. A θ-2θ continuous scan at 1.6°/min from 3 to 42° 2θ was used. The sample was prepared for analysis by placing it on a zero background plate. Crystalline Form P with 2.9 wt % of water were prepared using similar procedures as described in Method A. Dichloromethane (15V) and n-propyl acetate (35 V) were used as solvents and the DSC/TGA graph is shown in FIG. 25. Crystalline Form P with 2.9 wt % of water was ground in water using a mortar and pestle to produce a viscous slurry. The sample was rapidly prepared, covered with Kapton film and analyzed by PXRD.

With `Cn1cc(Nc2nccc(-c3ccc4c(c3)CN(C3COC3)CC[C@H]4NC(=O)c3cn(C(C)(C)C)nn3)n2)cn1` [Form B, (R)-1-(tert-butyl)-N-(8-(2-((1-methyl-1H-pyrazol-4-yl)amino)pyrimidin-4-yl)-2-(oxetan-3-yl)-2,3,4,5-tetrahydro-1H-benzo[c]azepin-5-yl)-1H-1,2,3-triazole-4-carboxamide] the “form conversion after heating (VT-PXRD)” value ([1]; heated to 130° C. under N2, then cooled back to 30° C.) was “No form conversion”.

In the case of `Cn1cc(Nc2nccc(-c3ccc4c(c3)CN(C3COC3)CC[C@H]4NC(=O)c3cn(C(C)(C)C)nn3)n2)cn1` [Form H, (R)-1-(tert-butyl)-N-(8-(2-((1-methyl-1H-pyrazol-4-yl)amino)pyrimidin-4-yl)-2-(oxetan-3-yl)-2,3,4,5-tetrahydro-1H-benzo[c]azepin-5-yl)-1H-1,2,3-triazole-4-carboxamide], the “form conversion after heating (PXRD before/after)” value [2] is reported as “no form conversion”.

In the case of `Cn1cc(Nc2nccc(-c3ccc4c(c3)CN(C3COC3)CC[C@H]4NC(=O)c3cn(C(C)(C)C)nn3)n2)cn1` [Form C, (R)-1-(tert-butyl)-N-(8-(2-((1-methyl-1H-pyrazol-4-yl)amino)pyrimidin-4-yl)-2-(oxetan-3-yl)-2,3,4,5-tetrahydro-1H-benzo[c]azepin-5-yl)-1H-1,2,3-triazole-4-carboxamide], the “form conversion after dehydration (VT-PXRD)” value ([1]; purging with N2 for 20 minutes at 30° C.) is reported as “converted to Form L”.

For `Cn1cc(Nc2nccc(-c3ccc4c(c3)CN(C3COC3)CC[C@H]4NC(=O)c3cn(C(C)(C)C)nn3)n2)cn1` [Form L, (R)-1-(tert-butyl)-N-(8-(2-((1-methyl-1H-pyrazol-4-yl)amino)pyrimidin-4-yl)-2-(oxetan-3-yl)-2,3,4,5-tetrahydro-1H-benzo[c]azepin-5-yl)-1H-1,2,3-triazole-4-carboxamide], the “form conversion after exposure to air (VT-PXRD)” value ([1]; exposure to air for about 2.5 hours, re-absorbs water) was “converts back to Form C”.

With `Cn1cc(Nc2nccc(-c3ccc4c(c3)CN(C3COC3)CC[C@H]4NC(=O)c3cn(C(C)(C)C)nn3)n2)cn1` [Form P, (R)-1-(tert-butyl)-N-(8-(2-((1-methyl-1H-pyrazol-4-yl)amino)pyrimidin-4-yl)-2-(oxetan-3-yl)-2,3,4,5-tetrahydro-1H-benzo[c]azepin-5-yl)-1H-1,2,3-triazole-4-carboxamide] the “PXRD peak shifts after grinding in water” value [3] was “No peak shifts”.
